Patent publication US20220106304A1, “Transcription Factor BRN2 Inhibitory Compounds as Therapeutics and Methods for Their Use” (The University of British Columbia, priority 2018, published 2022)

Legend:
[1] = Liver microsome metabolic stability, MLM; assay type: in vitro ADME; conditions: MLM (single value or second of two), 1 μM compound, 0.25 mg/mL protein; for Met Stab % (60 mins HLM/MLM): percent remaining at 60 min, 1 mM NADPH; for half-life at 1 µM: mouse, liver microsomes, pH 7.4, read-out: T1/2 in (mins HLM/MLM)
Summary of the method: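 Compound (1 μM) incubated at 37 °C with mouse or human liver microsomes (0.25 mg/mL) in 50 mM phosphate pH 7.4 with 1 mM NADPH; samples quenched at 0–60 min. Parent loss by LC-MS/MS gives t½ (0.693/k) and CL'int scaled by 45 mg protein/g liver.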

[2] = target: T1, BRN2 (Homo sapiens, UniProt P20265); assay: BLI binding
T1 sequence (P20265 1-443): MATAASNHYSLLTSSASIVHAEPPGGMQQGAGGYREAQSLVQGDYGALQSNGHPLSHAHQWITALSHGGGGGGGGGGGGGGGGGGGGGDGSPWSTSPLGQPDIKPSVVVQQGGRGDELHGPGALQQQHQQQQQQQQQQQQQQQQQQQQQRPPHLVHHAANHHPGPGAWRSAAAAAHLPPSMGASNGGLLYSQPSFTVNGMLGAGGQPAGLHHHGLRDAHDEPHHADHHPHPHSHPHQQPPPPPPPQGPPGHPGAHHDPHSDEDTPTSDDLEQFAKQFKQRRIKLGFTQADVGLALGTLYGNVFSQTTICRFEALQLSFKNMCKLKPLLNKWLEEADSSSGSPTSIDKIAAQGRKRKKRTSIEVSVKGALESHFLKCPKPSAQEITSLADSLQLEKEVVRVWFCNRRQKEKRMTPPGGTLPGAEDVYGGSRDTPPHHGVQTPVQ

[3] = test system: 42D^ENZR cells vs 16D^CRPC cells; assay: Cell proliferation specificity, 42D^ENZR cells vs 16D^CRPC cells; assay type: cell-based; conditions: 42D cells express BRN2, 16D cells do not; some also LNCaP; result in words
Protocol: Plate 42DENZR (˜7000 cells per well) and 16D^CRPC (˜5000 cells per well) cells in 96 well plate with a volume of 100 μL per well. • 2. Next day 1 mL aliquots of media are combined with 3× the desired concentration of compounds. The aliquots are vortexed and 50 μL of each 3× concentration is added to the 100 μL of media in each well to give the ix desired concentration.
The following are the desired concentrations:
0, 10 nM, 100 nM, 500 nM, 1 μM, 2.5 μM, 5 μM, 10 μM, 15 μM, […], 30 μM. • 3. Approximately 72 hours later, 17 μL of 10% Glutaraldehyde is added to each well and plates are placed on a shaker for 20-30 minutes. • 4. Media is washed off the fixed cells by slow submersion in a container of water. Then the water is removed by tapping the plate upside down. • 5. 75 μL of Crystal Violet™ solution is added into the 96 well plates and placed on a shaker for ˜30 minutes. • 6. Media is washed off the fixed cells by repeated slow submersion in a container of water and the plates are allowed to dry over-night. • 7. Next day, 75 μL of Sorensen Solution is accurately pipetted into each well. The plates placed on a shaker for ˜30 minutes. • 8. Absorbance is measured in the plate at 590 nm.
Compounds that Show Specificity Towards 42D^ENZR Cells Vs 16D^CRPC Cells Progress to Step 4.
Where data is not available “na” is inserted.

SMILES	Met Stab % (60 mins HLM/MLM) [1]	half-life at 1 µM [1]	BLI binding [2]	specificity [3]
FC(F)(F)c1ccc2cc(-c3csc(-c4ccco4)n3)oc2c1 [VPC-18-51, 2-(Furan-2-yl)-4-(6-(trifluoromethyl)benzofuran-2-yl)thiazole]	7%	16 min	binding	specific 42D not 16D
Clc1cc2cc(-c3csc(-c4ccc[nH]4)n3)oc2cc1Cl [VPC-18-142]	17%	26 min	binding	not 16D
